Reference: patent US20230089867A1, “CYCLIC PENTAMER COMPOUNDS AS PROPROTEIN CONVERTASE SUBTILISIN/KEXIN TYPE 9 (PCSK9) INHIBITORS FOR THE TREATMENT OF METABOLIC DISORDER” (Novartis AG, priority 2018, published 2023)

Target: human PCSK9 (Homo sapiens, UniProt Q8NBP7)
Assay: PCSK9 ligand binding TR-FRET assay (interference with binding of human PCSK9 to human LDLR)
Details: for Max % inhibition: PCSK9 FRET assay, efficacy (Amax), 100% = 1 uM unlabeled human PCSK9, 0% = DMSO; for IC50: TR-FRET, human PCSK9 Alexa Fluor 647 / human LDLR extracellular domain-Europium Kryptate, read-out: PCSK9 FRET Assay IC50
Summary of the method: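 Threefold compound dilutions were pre-incubated 30 min with PCSK9, after which 4 nM Europium Kryptate-tagged human LDLR ectodomain was added for a further 2 h.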

Sequence of human PCSK9 (Q8NBP7 153-692): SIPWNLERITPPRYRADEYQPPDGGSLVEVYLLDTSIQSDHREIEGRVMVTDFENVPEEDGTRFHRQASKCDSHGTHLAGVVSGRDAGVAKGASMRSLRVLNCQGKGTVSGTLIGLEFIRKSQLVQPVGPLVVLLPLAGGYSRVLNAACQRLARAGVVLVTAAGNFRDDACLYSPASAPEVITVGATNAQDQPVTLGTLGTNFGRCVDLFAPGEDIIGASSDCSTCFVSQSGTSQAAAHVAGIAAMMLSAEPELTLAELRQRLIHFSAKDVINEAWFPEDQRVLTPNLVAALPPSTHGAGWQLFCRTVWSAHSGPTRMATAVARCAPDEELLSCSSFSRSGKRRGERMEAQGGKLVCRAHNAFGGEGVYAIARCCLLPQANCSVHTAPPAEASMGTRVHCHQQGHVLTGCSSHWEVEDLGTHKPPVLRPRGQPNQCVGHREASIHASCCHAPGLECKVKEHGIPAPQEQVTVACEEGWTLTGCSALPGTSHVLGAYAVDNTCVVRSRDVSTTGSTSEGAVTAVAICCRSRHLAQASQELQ
Sequence of human PCSK9 (Q8NBP7 31-152 partner limits assumed): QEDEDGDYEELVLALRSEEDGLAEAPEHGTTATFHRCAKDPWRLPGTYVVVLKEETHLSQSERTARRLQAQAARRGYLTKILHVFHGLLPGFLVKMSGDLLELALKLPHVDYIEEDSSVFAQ

Q: For `COC[C@@H]1NC(=O)[C@H](CCCN2CCCC2)N(Cc2ccc(Cl)cc2Oc2ccc(-c3cnc(CN(C)C)n3C)cc2)C(=O)C[C@@H](Cc2cccc[n+]2[O-])C(=O)N(C)[C@H]2CCCC[C@@H]2NC(=O)C[C@H](Cc2ccc(Cl)cc2)N(C)C1=O` [Compound 111, 2-(((4S,7S,10S,14R,16aS,20aS)-11-(4-chloro-2-(4-(2-((dimethylamino)methyl)-1-methyl-1H-imidazol-5-yl)phenoxy)benzyl)-4-(4-chlorobenzyl)-7-(methoxymethyl)-5,16-dimethyl-2,6,9,12,15-pentaoxo-10-(3-(pyrrolidin-1-yl)propyl)docosahydrobenzo[l][1,4,7,11,14]pentaazacyclooctadecin-14-yl)methyl)pyridine 1-oxide], which Max % inhibition is on record?
A: 103.17%

Q: What about the IC50 of the same molecule?
A: 0.9 nM

Q: Which Max % inhibition does the source give for `COC[C@@H]1NC(=O)[C@H](C)N(Cc2ccc(Cl)cc2Oc2ccc(-n3cnc(CN4CC5(COC5)C4)c3C)cc2)C(=O)C[C@@H](Cc2ccccc2)C(=O)N(C)[C@@H](C)CNC(=O)C[C@H](Cc2ccc(Cl)cc2)N(C)C1=O` [Compound 112, (2S,5S,8S,13S,16R)-1-(2-(4-(4-(2-oxa-6-azaspiro[3.3]heptan-6-ylmethyl)-5-methyl-1H-imidazol-1-yl)phenoxy)-4-chlorobenzyl)-16-benzyl-8-(4-chlorobenzyl)-5-(methoxymethyl)-2,7,13,14-tetramethyl-1,4,7,11,14-pentaazacyclooctadecane-3,6,10,15,18-pentaone] here?
A: 107.46%

Q: What about the IC50 of the same molecule?
A: 3.2 nM

Q: What does the source list for `COC[C@@H]1NC(=O)[C@H](C)N(Cc2ccc(Cl)cc2Oc2cccc(C(=O)NC3CCNCC3)c2)C(=O)C[C@@H](Cc2ccccc2)C(=O)N(C)[C@@H](C)CNC(=O)C[C@H](Cc2ccc(Cl)cc2)N(C)C1=O` [Compound 113, 3-(2-(((2S,5S,8S,13S,16R)-16-benzyl-8-(4-chlorobenzyl)-5-(methoxymethyl)-2,7,13,14-tetramethyl-3,6,10,15,18-pentaoxo-1,4,7,11,14-pentaazacyclooctadecan-1-yl)methyl)-5-chlorophenoxy)-N-(piperidin-4-yl)benzamide]?
A: Max % inhibition: 53.35%; IC50: 299 nM

Q: Which Max % inhibition does the source give for `COC[C@@H]1NC(=O)[C@H](C)N(Cc2ccc(Cl)cc2Oc2ccc(-c3nnc4n3CCNC4)cc2)C(=O)C[C@@H](Cc2ccccc2)C(=O)N(C)[C@@H](C)CNC(=O)C[C@H](Cc2ccc(Cl)cc2)N(C)C1=O` [Compound 114, (2S,5S,8S,13S,16R)-16-benzyl-1-(4-chloro-2-(4-(5,6,7,8-tetrahydro-[1,2,4]triazolo[4,3-a]pyrazin-3-yl)phenoxy)benzyl)-8-(4-chlorobenzyl)-5-(methoxymethyl)-2,7,13,14-tetramethyl-1,4,7,11,14-pentaazacyclooctadecane-3,6,10,15,18-pentaone] here?
A: 57.46%

Q: And the IC50?
A: 4.5 nM

Q: For `COC[C@@H]1NC(=O)[C@H](C)N(Cc2ccc(Cl)cc2Oc2ccc(-c3cnc4c(c3)CNCC4)cc2)C(=O)C[C@@H](Cc2ccccc2)C(=O)N(C)[C@@H](C)CNC(=O)C[C@H](Cc2ccc(Cl)cc2)N(C)C1=O` [Compound 115, (2S,5S,8S,13S,16R)-16-benzyl-1-(4-chloro-2-(4-(5,6,7,8-tetrahydro-1,6-naphthyridin-3-yl)phenoxy)benzyl)-8-(4-chlorobenzyl)-5-(methoxymethyl)-2,7,13,14-tetramethyl-1,4,7,11,14-pentaazacyclooctadecane-3,6,10,15,18-pentaone], which Max % inhibition is on record?
A: 72.72%

Q: What about the IC50 of the same molecule?
A: 5.3 nM

Q: How did the Max % inhibition turn out when `COCC(=O)N1CCn2c(nnc2-c2ccc(Oc3cc(Cl)ccc3CN3C(=O)C[C@@H](Cc4ccccc4)C(=O)N(C)[C@@H](C)CNC(=O)C[C@H](Cc4ccc(Cl)cc4)N(C)C(=O)[C@H](COC)NC(=O)[C@@H]3C)cc2)C1` [Compound 116, (2S,5S,8S,13S,16R)-16-benzyl-1-(4-chloro-2-(4-(7-(2-methoxyacetyl)-5,6,7,8-tetrahydro-[1,2,4]triazolo[4,3-a]pyrazin-3-yl)phenoxy)benzyl)-8-(4-chlorobenzyl)-5-(methoxymethyl)-2,7,13,14-tetramethyl-1,4,7,11,14-pentaazacyclooctadecane-3,6,10,15,18-pentaone] was run?
A: 59.45%

Q: What about the IC50 of the same molecule?
A: 4.8 nM

Q: With `COCC(=O)N1CCc2ncc(-c3ccc(Oc4cc(Cl)ccc4CN4C(=O)C[C@@H](Cc5ccccc5)C(=O)N(C)[C@@H](C)CNC(=O)C[C@H](Cc5ccc(Cl)cc5)N(C)C(=O)[C@H](COC)NC(=O)[C@@H]4C)cc3)cc2C1` [Compound 117, (2S,5S,8S,13S,16R)-16-benzyl-1-(4-chloro-2-(4-(6-(2-methoxyacetyl)-5,6,7,8-tetrahydro-1,6-naphthyridin-3-yl)phenoxy)benzyl)-8-(4-chlorobenzyl)-5-(methoxymethyl)-2,7,13,14-tetramethyl-1,4,7,11,14-pentaazacyclooctadecane-3,6,10,15,18-pentaone] as the molecule, how does the Max % inhibition read?
A: 67.25%

Q: What about the IC50 of the same molecule?
A: 4.2 nM

Q: `COC[C@@H]1NC(=O)[C@H](C)N(Cc2ccc(Cl)cc2Oc2cccc(C(=O)NC3CCN(C)CC3)c2)C(=O)C[C@@H](Cc2ccccc2)C(=O)N(C)[C@@H](C)CNC(=O)C[C@H](Cc2ccc(Cl)cc2)N(C)C1=O` [Compound 118, 3-(2-(((2S,5S,8S,13S,16R)-16-benzyl-8-(4-chlorobenzyl)-5-(methoxymethyl)-2,7,13,14-tetramethyl-3,6,10,15,18-pentaoxo-1,4,7,11,14-pentaazacyclooctadecan-1-yl)methyl)-5-chlorophenoxy)-N-(1-methylpiperidin-4-yl)benzamide] was tested. Which Max % inhibition did it give?
A: 65.13%

Q: What about the IC50 of the same molecule?
A: 24.6 nM

Q: What does the source list for `CCN(CC)Cc1cn(-c2ccc(Oc3cc(Cl)ccc3CN3C(=O)C[C@@H](Cc4ccccc4)C(=O)N(C)[C@@H](C)CNC(=O)C[C@H](Cc4ccc(Cl)cc4)N(C)C(=O)[C@H](COC)NC(=O)[C@@H]3C)cc2)nn1` [Compound 120, (2S,5S,8S,13S,16R)-16-benzyl-1-(4-chloro-2-(4-(4-((diethylamino)methyl)-1H-1,2,3-triazol-1-yl)phenoxy)benzyl)-8-(4-chlorobenzyl)-5-(methoxymethyl)-2,7,13,14-tetramethyl-1,4,7,11,14-pentaazacyclooctadecane-3,6,10,15,18-pentaone]?
A: Max % inhibition: 48.04%; IC50: 23.6 nM

Q: For `COC[C@@H]1NC(=O)[C@H](C)N(Cc2ccc(Cl)cc2Oc2ccc(-c3cnc4n3CCNC4)cc2)C(=O)C[C@@H](Cc2ccccc2)C(=O)N(C)[C@@H](C)CNC(=O)C[C@H](Cc2ccc(Cl)cc2)N(C)C1=O.O=C(O)C(F)(F)F` [Compound 121, (2S,5S,8S,13S,16R)-16-benzyl-1-(4-chloro-2-(4-(5,6,7,8-tetrahydroimidazo[1,2-a]pyrazin-3-yl)phenoxy)benzyl)-8-(4-chlorobenzyl)-5-(methoxymethyl)-2,7,13,14-tetramethyl-1,4,7,11,14-pentaazacyclooctadecane-3,6,10,15,18-pentaone trifluoroacetate], which Max % inhibition is on record?
A: 59.89%

Q: And the IC50?
A: 2.8 nM

Q: How did the Max % inhibition turn out when `COC[C@@H]1NC(=O)[C@H](C)N(Cc2ccc(Cl)cc2Oc2ccc(-c3ccc(C(=O)NC4CCNCC4)nc3)cc2)C(=O)C[C@@H](Cc2ccccc2)C(=O)N(C)[C@@H](C)CNC(=O)C[C@H](Cc2ccc(Cl)cc2)N(C)C1=O.O=C(O)C(F)(F)F` [Compound 122, 5-(4-(2-(((2S,5S,8S,13S,16R)-16-benzyl-8-(4-chlorobenzyl)-5-(methoxymethyl)-2,7,13,14-tetramethyl-3,6,10,15,18-pentaoxo-1,4,7,11,14-pentaazacyclooctadecan-1-yl)methyl)-5-chlorophenoxy)phenyl)-N-(piperidin-4-yl)picolinamide trifluoroacetate] was run?
A: 55.05%

Q: And the IC50?
A: 8.7 nM

Q: Which Max % inhibition does the source give for `COC[C@@H]1NC(=O)[C@H](C)N(Cc2ccc(Cl)cc2Oc2ccc(-c3cnc4n3CCN(C(C)C)C4)cc2)C(=O)C[C@@H](Cc2ccccc2)C(=O)N(C)[C@@H](C)CNC(=O)C[C@H](Cc2ccc(Cl)cc2)N(C)C1=O.O=C(O)C(F)(F)F` [Compound 123, (2S,5S,8S,13S,16R)-16-benzyl-1-(4-chloro-2-(4-(7-isopropyl-5,6,7,8-tetrahydroimidazo[1,2-a]pyrazin-3-yl)phenoxy)benzyl)-8-(4-chlorobenzyl)-5-(methoxymethyl)-2,7,13,14-tetramethyl-1,4,7,11,14-pentaazacyclooctadecane-3,6,10,15,18-pentaone trifluoroacetate] here?
A: 74.19%

Q: And the IC50?
A: 3.4 nM

Q: `COC[C@@H]1NC(=O)[C@H](C)N(Cc2ccc(Cl)cc2Oc2ccc(-c3cnc4n3CCN(C(=O)C3CCNC3)C4)cc2)C(=O)C[C@@H](Cc2ccccc2)C(=O)N(C)[C@@H](C)CNC(=O)C[C@H](Cc2ccc(Cl)cc2)N(C)C1=O.O=C(O)C(F)(F)F` (stereo partly drawn) [Compound 124, (2S,5S,8S,13S,16R)-16-benzyl-1-(4-chloro-2-(4-(7-(pyrrolidine-3-carbonyl)-5,6,7,8-tetrahydroimidazo[1,2-a]pyrazin-3-yl)phenoxy)benzyl)-8-(4-chlorobenzyl)-5-(methoxymethyl)-2,7,13,14-tetramethyl-1,4,7,11,14-pentaazacyclooctadecane-3,6,10,15,18-pentaone trifluoroacetate] was tested. Which Max % inhibition did it give?
A: 100.50%

Q: And the IC50?
A: 3.8 nM

Q: `C[C@H]1CNC(=O)C[C@H](Cc2ccc(Cl)cc2)N(C)C(=O)[C@H](CO)NC(=O)[C@H](C)N(Cc2ccc(Cl)cc2Oc2ccc3c(c2)C(=O)N(C2CCNCC2)C3)C(=O)C[C@@H](Cc2ccccc2)C(=O)N1C` [Compound 125, (2S,5S,8S,13S,16R)-16-benzyl-1-(4-chloro-2-((3-oxo-2-(piperidin-4-yl)isoindolin-5-yl)oxy)benzyl)-8-(4-chlorobenzyl)-5-(hydroxymethyl)-2,7,13,14-tetramethyl-1,4,7,11,14-pentaazacyclooctadecane-3,6,10,15,18-pentaone] was tested. Which Max % inhibition did it give?
A: 60.93%

Q: And the IC50?
A: 28 nM
